According to PubChem BioAssay (NCI):
Where “and” joins values, the source holds several entries; their conditions need not be identical. Identical values can stand only once.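 96-well plates; 48 h exposure; 5 concentrations. Endpoints by linear interpolation between flanking doses. Not reached: highest tested concentration assigned. The concentration for 50% growth inhibition is given as GI50. The concentration for full growth arrest is given as TGI.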

How the values were obtained:
Assay in all cases: inhibition of tumour cell growth, NCI panel, 48 h
[1] = test system: CAKI-1 renal
[2] = test system: DU-145 prostate
[3] = test system: IGROV1 ovarian
[4] = test system: MDA-MB-435
[5] = test system: SF-268 CNS
[6] = test system: SF-295 CNS
[7] = test system: SK-OV-3 ovarian
[8] = test system: SNB-19 CNS
[9] = test system: SW-620 colon
[10] = test system: U251 CNS

NC(=O)CC(N)c1nn[nH]n1 (centres undefined)
TGI [1]: > 100 µM
TGI [2]: > 100 µM
TGI [3]: > 100 µM
TGI [4]: > 100 µM
TGI [5]: > 100 µM
TGI [6]: > 100 µM
TGI [7]: > 100 µM
TGI [8]: > 100 µM
TGI [9]: > 100 µM
TGI [10]: > 100 µM

O=S(=O)(O)c1ccc2cc3nn(-c4ccc(/C=C/c5ccc(-n6nc7cc8ccc(S(=O)(=O)O)cc8cc7n6)cc5S(=O)(=O)O)c(S(=O)(=O)O)c4)nc3cc2c1
GI50 [1]: > 100000 nM
TGI [1]: > 100 µM
GI50 [2]: > 100 µM
TGI [2]: > 100 µM
GI50 [3]: 27 µM
TGI [3]: > 100 µM
GI50 [4]: > 100 µM
TGI [4]: > 100 µM
GI50 [5]: > 100000 nM
TGI [5]: > 100 µM
GI50 [6]: > 100000 nM
TGI [6]: > 100 µM
GI50 [7]: > 100000 nM
TGI [7]: > 100 µM
GI50 [8]: > 100000 nM
TGI [8]: > 100 µM
GI50 [9]: 63.2 µM
TGI [9]: > 100 µM
GI50 [10]: 50300 nM
TGI [10]: > 100 µM

COc1ccc(-c2[nH]c3ccccc3c2/C=C(\C#N)S(=O)(=O)c2ccccc2)cc1
GI50 [1]: 975 nM
TGI [1]: > 31.6 µM
GI50 [2]: 0.447 µM
GI50 [3]: 3.44 µM
GI50 [4]: 0.204 µM
TGI [4]: 0.642 µM
GI50 [5]: 1130 nM
TGI [5]: > 45.9 µM
GI50 [6]: 487 nM
GI50 [7]: 516 nM
TGI [7]: > 25.3 µM
GI50 [8]: 844 nM
TGI [8]: > 100 µM
GI50 [9]: 0.503 µM
TGI [9]: > 100 µM
GI50 [10]: 462 nM
TGI [10]: > 29.4 µM

COc1ccc(/C=N\Nc2nc(SCC(C)C)nc(-c3ccc(OC)cc3)c2C#N)cc1
GI50 [1]: 1550 nM
TGI [1]: 3.96 µM
GI50 [2]: 13.7 µM
TGI [2]: > 100 µM
GI50 [3]: 1.92 µM
TGI [3]: 20 µM
GI50 [4]: 17.9 µM
TGI [4]: > 100 µM
GI50 [5]: 11700 nM
TGI [5]: 67.7 µM
GI50 [6]: 8580 nM
TGI [6]: 28 µM
GI50 [7]: 1460 nM
TGI [7]: 14.6 µM
GI50 [8]: 6810 nM
TGI [8]: 33.3 µM
GI50 [9]: 5.15 µM
TGI [9]: > 100 µM
GI50 [10]: 988 nM
TGI [10]: 14.9 µM

C=CC(=O)N[C@@H](/C=C/C(=O)OCC)Cc1ccc(-c2cc(Cl)cc(Cl)c2)cc1
GI50 [1]: 21500 nM
TGI [1]: > 100 µM
GI50 [2]: 12.9 µM
TGI [2]: 64.2 µM
GI50 [3]: 12.7 µM
TGI [3]: > 100 µM
GI50 [4]: 8.58 µM
TGI [4]: 50 µM
GI50 [5]: 16000 nM
TGI [5]: > 100 µM
GI50 [6]: 13500 nM
TGI [6]: 83.5 µM
GI50 [7]: 19400 nM
TGI [7]: 63.1 µM
GI50 [8]: 16500 nM
TGI [8]: > 100 µM
GI50 [9]: 17 µM
TGI [9]: 83.2 µM
GI50 [10]: 17200 nM
TGI [10]: > 100 µM

Nc1nc(-c2ccc(Cl)cc2)nc2c1sc(=S)n2-c1ccccc1
GI50 [1]: 9170 nM
TGI [1]: 84.5 µM
GI50 [2]: 4.36 µM
TGI [2]: 18.9 µM
GI50 [3]: 3.3 µM
TGI [3]: 17 µM
GI50 [4]: 6.65 µM
TGI [4]: > 100 µM
GI50 [5]: 3750 nM
TGI [5]: 20.2 µM
GI50 [6]: 2720 nM
TGI [6]: 7.62 µM
GI50 [7]: 3830 nM
TGI [7]: 14.5 µM
GI50 [8]: 3550 nM
TGI [8]: 10.1 µM
GI50 [9]: 6.45 µM
TGI [9]: 82.9 µM
GI50 [10]: 3500 nM
TGI [10]: 11.9 µM

O=C(c1ccco1)c1c(C(F)(F)F)n([O-])c2cc(F)c(F)cc2[n+]1=O
GI50 [1]: 440 nM
TGI [1]: 1.37 µM
GI50 [2]: 0.238 µM
TGI [2]: 0.727 µM
GI50 [3]: 1.07 µM
TGI [3]: 3.31 µM
GI50 [4]: 0.553 µM
TGI [4]: 3.45 µM
GI50 [5]: 290 nM
TGI [5]: 1.09 µM
GI50 [6]: 737 nM
TGI [6]: 2.17 µM
GI50 [7]: 346 nM
TGI [7]: 1.11 µM
GI50 [8]: 1020 nM
TGI [8]: 2.35 µM
TGI [9]: 0.0132 µM
GI50 [10]: 153 nM
TGI [10]: 0.291 µM

NCc1ccc(-c2nc(-c3ccc(Cl)c(O)c3)c(-c3ccncc3)[nH]2)cc1
GI50 [1]: > 25000 nM
TGI [1]: > 25 µM
GI50 [2]: > 25 µM
TGI [2]: > 25 µM
GI50 [3]: > 25 µM
TGI [3]: > 25 µM
GI50 [4]: 5.18 µM
TGI [4]: > 25 µM
GI50 [5]: > 25000 nM
TGI [5]: > 25 µM
GI50 [6]: > 25000 nM
TGI [6]: > 25 µM
GI50 [7]: > 25000 nM
TGI [7]: > 25 µM
GI50 [8]: > 25000 nM
TGI [8]: > 25 µM
GI50 [9]: 24.2 µM
TGI [9]: > 25 µM
GI50 [10]: > 25000 nM
TGI [10]: > 25 µM

CC(=O)N(O)c1ccc(/C=C/c2ccccc2)cc1
GI50 [1]: 543 nM
TGI [1]: 3.22 µM
GI50 [2]: 0.278 µM
TGI [2]: 2.52 µM
GI50 [3]: 1.14 µM
TGI [3]: 7.41 µM
GI50 [4]: 3.39 µM
TGI [4]: > 100 µM
GI50 [5]: 817 nM
TGI [5]: 9.69 µM
GI50 [6]: 362 nM
TGI [6]: 2.78 µM
GI50 [7]: 2040 nM
TGI [7]: 8.77 µM
GI50 [8]: 1880 nM
TGI [8]: > 100 µM
GI50 [9]: 1.15 µM
TGI [9]: > 100 µM
GI50 [10]: 1230 nM
TGI [10]: 3.59 µM

CC1(C)[C@H](O)[C@H](F)C[C@@]2(C)Oc3ccc(C(=O)Nc4ccc5c(c4)NC(=O)C54CCN(CCCCC#N)CC4)cc3C[C@H]12
TGI [1]: 38.5 µM
TGI [2]: 17.3 µM
GI50 [3]: 2.05 µM and 3.63 µM
TGI [3]: 34.4 µM
GI50 [4]: 0.09 µM and 0.0946 µM
TGI [4]: 1.83 µM and 2.94 µM
GI50 [5]: 413 nM and 400 nM
TGI [5]: 10.1 µM
GI50 [6]: 4.02 nM
TGI [6]: 0.0181 µM
GI50 [7]: 2100 nM and 341 nM
TGI [7]: 3.54 µM
GI50 [8]: 412 nM and 1070 nM
TGI [8]: 6.81 µM
GI50 [9]: 0.0943 µM and 0.0405 µM
TGI [9]: 2.52 µM and 2.68 µM
GI50 [10]: 4.14 nM
TGI [10]: 2.02 µM
